Where two headings read alike, the source gives them in different places.
Columns and labels:
[1] = test system: colon cancer HT-29; conditions: cited from earlier work
[2] = test system: C-6 (rat neurogliocytoma cell line); experiment: in vitro growth inhibition of tumor cells, C-6; assay type: cell-based; conditions: C6; for Inhibition effects on in vitro growth: 48 hours
Description: (§1) The tumor strains are A-549 (human lung adenocarcinoma cell line), BGC-823 (human gastric cancer cell line), C-6 (rat neurogliocytoma cell line), Hep G2 (human hepatic cancer cell line), HL-60 (human leukemia cell line), K-562 (human erythremia cell line) and Hela (human cervical cancer cell line). […] The drug was prepared as a stock solution of 10^−2 M by using physiological saline and diluted into the test solution in a gradient composed of five concentrations: C1 5×10^−5 M, C2 10^−5 M, C3 10^−6 M, C4 10^−7 M and C5 10^−8 M.
(§2) Experimental method: different tumor cells in exponential growth phase are inoculated in 96-well plates in a certain amount and the selected samples are added after the cells are cultured for 24 hours (suspension cells can be directly added after being inoculated), after the cells are incubated at 37° C. and 5% CO2 for another 48 hours, […] is added for further incubation for another 4 hours, and finally the samples are examined on a microplate reader after dissolving with DMSO.

[3] = test system: human non-small cell lung cancer H460 xenograft tumor; conditions: for Ending body weight / Tumor weight / Tumor-inhibition rate: 21 days
Description: The test article: the inclusion complex of DPT and SBE-β-CD, the content is 5.05%. Preparation Method: it is dissolved in a proper amount of saline after gentle shaking and the concentration is 0.4 mg/ml (which is the test solution for the 8 mg/kg group); other concentrations are prepared by diluting the stock solution of 0.4 mg/ml to the required concentration with physiological saline.
The control article: Etoposide injection produced by Qilu Pharmaceutical Co., Ltd. the batch number is 8060012EV, specification: 5 ml:0.1 g. Preparation Method: Etoposide injection is a kind of transparent sticky liquid and it is diluted with a proper amount of physiological saline and gently shaken and prepared as a homogeneous solution, and the concentration is 1 mg/ml.
Dosage setting: the high dosage group of DPT is 8 mg/kg, the medium dosage group of DPT is 4 mg/kg and the low dosage group of DPT is 2 mg/kg. The dosage for the positive control group of Etoposide injection is 20 mg/kg.
Experimental animals: source, germline and strain: BALB/c nude mice are provided by the Institute of Experimental Animals, Chinese Academy of Medical Sciences. Age: 35-40 days; body weight: 18-24 g; gender: male.
Transplanted tumor: the transplanted tumor for human nonsmall-cell lung cancer H460 in nude mice, and it is established by inoculating the human nonsmall-cell lung cancer H460 cell line hypodermically in the armpit of nude mice. 2×10^6 cells are inoculated.
Human non-small cell lung cancer H460 cell line in exponential phase of growth is prepared as a cell suspension of 2×10^7/ml under sterile conditions, 0.1 ml thereof is inoculated hypodermically in the right armpit of nude mice. The diameters of the transplanted tumors in the nude mice are measured by a sliding caliper, and the animals are randomly divided into different groups when the tumors grow up to the amount of 100 to 300 mm^3. The antitumor efficacy of the test article is dynamically observed by measuring the diameter of the tumor. The diameters of the tumor are determined once for every two days. The administration volume is 0.4 ml/20 g. The mice are killed 21 days after administration, and the tumors are surgically isolated and weighed. The calculation formula for tumor volume (TV) is as follows: TV=½×a×b^2 Wherein a and b represents for the length and the width, respectively.
The relative tumor volume (RTV) is calculated according to the measured results, and the calculation formula is as follows: RTV=Vt/V0. Wherein V0 is the tumor size measured during grouping and drug administration (d0), Vt is the tumor size in every measurements. The evaluation parameter for antitumor activity is the relative tumor growth rate T/C (%) which is calculated according to the formula as follows:
[formula] TRTV: the treatment group RTV; CRTV: the negative control group: RTV.

[4] = test system: K-562 (human erythremia cell line); experiment: in vitro growth inhibition of tumor cells, K-562; assay type: cell-based; conditions: for Inhibition effects on in vitro growth: K562, 48 hours
Description: as §1, §2

[5] = H460 nude mice, 8 mg/kg iv three times a week, 9 times

In the case of `COc1cc([C@@H]2c3cc4c(cc3C[C@H]3COC(=O)[C@@H]32)OCO4)cc(OC)c1OC` [DPT, Deoxypodophyllotoxin], the “in vitro inhibition effects” value [1] is listed as “in vitro inhibition effects”, the “Inhibition effects on in vitro growth” value ([2]; 5 × 10^−5M) is listed as 84.41% and the “Inhibition effects on in vitro growth” value ([2]; 10^−5M) is listed as 58.54%. The “inhibition effects compared with Etoposide” value ([2]; 10^−5 to 10^−8 M) was “significant better than that of Etoposide”, the “Inhibition effects on in vitro growth” value ([2]; 10^−6M) was 55.01% and the “Inhibition effects on in vitro growth” value ([2]; 10^−7M) was 54.11%. For the same molecule, the “Inhibition effects on in vitro growth” value ([2]; 10^−8M) was 52.34%, the Tumor volume ([3]; 2 mg/kg iv, 0 d) was 296 ± 117 mm^3 and the RTV ([3]; 2 mg/kg iv, 2 d) was 1.396 ± 0.251. For the same molecule, the T/C ([3]; 2 mg/kg iv, 2 d) was 86.85%, the Tumor volume ([3]; 2 mg/kg iv, 2 d) was 427 ± 190 mm^3 and the RTV ([3]; 2 mg/kg iv, 4 d) was 1.827 ± 0.373. The T/C ([3]; 2 mg/kg iv, 4 d) was 69.97%, the Tumor volume ([3]; 2 mg/kg iv, 4 d) was 554 ± 234 mm^3 and the RTV ([3]; 2 mg/kg iv, 6 d) was 2.391 ± 0.764. It also gave a T/C ([3]; 2 mg/kg iv, 6 d) of 78.07%, a Tumor volume ([3]; 2 mg/kg iv, 6 d) of 729 ± 364 mm^3 and an RTV ([3]; 2 mg/kg iv, 8 d) of 2.819 ± 0.559. The T/C ([3]; 2 mg/kg iv, 8 d) was 64.20%, the Tumor volume ([3]; 2 mg/kg iv, 8 d) was 807 ± 294 mm^3 and the Gross tumor volume ([3]; 2 mg/kg iv, 10 d) was 1039 ± 316 mm^3. The RTV ([3]; 2 mg/kg iv, 10 d) was 3.750 ± 1.015, the T/C ([3]; 2 mg/kg iv, 10 d) was 74.96% and the Gross tumor volume ([3]; 2 mg/kg iv, 12 d) was 1424 ± 511 mm^3. The RTV ([3]; 2 mg/kg iv, 12 d) was 5.122 ± 1.538, the T/C ([3]; 2 mg/kg iv, 12 d) was 68.96% and the RTV ([3]; 2 mg/kg iv, 14 d) was 6.698 ± 2.532. The T/C ([3]; 2 mg/kg iv, 14 d) was 78.93%, the Tumor volume ([3]; 2 mg/kg iv, 14 d) was 1777 ± 386 mm^3 and the RTV ([3]; 2 mg/kg iv, 16 d) was 8.626 ± 3.791. It also gave a T/C ([3]; 2 mg/kg iv, 16 d) of 86.49%, a Tumor volume ([3]; 2 mg/kg iv, 16 d) of 2249 ± 394 mm^3 and an RTV ([3]; 2 mg/kg iv, 18 d) of 8.825 ± 3.701. For the same molecule, the T/C ([3]; 2 mg/kg iv, 18 d) was 78.31%, the Tumor volume ([3]; 2 mg/kg iv, 18 d) was 2304 ± 405 mm^3 and the RTV ([3]; 2 mg/kg iv, 21 d) was 9.776 ± 3.452. For the same molecule, the T/C ([3]; 2 mg/kg iv, 21 d) was 84.89%, the Tumor volume ([3]; 2 mg/kg iv, 21 d) was 2591 ± 412 mm^3 and the Tumor volume ([3]; 4 mg/kg iv, 0 d) was 272 ± 131 mm^3. It also gave an RTV ([3]; 4 mg/kg iv, 2 d) of 1.324 ± 0.236, a T/C ([3]; 4 mg/kg iv, 2 d) of 82.37% and a Tumor volume ([3]; 4 mg/kg iv, 2 d) of 381 ± 234 mm^3. The RTV ([3]; 4 mg/kg iv, 4 d) was 1.823 ± 0.427, the T/C ([3]; 4 mg/kg iv, 4 d) was 69.82% and the Tumor volume ([3]; 4 mg/kg iv, 4 d) was 521 ± 288 mm^3. For the same molecule, the RTV ([3]; 4 mg/kg iv, 6 d) was 2.465 ± 0.699, the T/C ([3]; 4 mg/kg iv, 6 d) was 80.49% and the Tumor volume ([3]; 4 mg/kg iv, 6 d) was 729 ± 471 mm^3. The RTV ([3]; 4 mg/kg iv, 8 d) was 3.331 ± 0.641, the T/C ([3]; 4 mg/kg iv, 8 d) was 75.85% and the Tumor volume ([3]; 4 mg/kg iv, 8 d) was 906 ± 434 mm^3. For the same molecule, the Gross tumor volume ([3]; 4 mg/kg iv, 10 d) was 1052 ± 475 mm^3, the RTV ([3]; 4 mg/kg iv, 10 d) was 4.041 ± 1.493 and the T/C ([3]; 4 mg/kg iv, 10 d) was 80.78%. It also gave a Gross tumor volume ([3]; 4 mg/kg iv, 12 d) of 1261 ± 586 mm^3, an RTV ([3]; 4 mg/kg iv, 12 d) of 4.780 ± 1.070 and a T/C ([3]; 4 mg/kg iv, 12 d) of 64.35%. It also gave an RTV ([3]; 4 mg/kg iv, 14 d) of 5.954 ± 1.425, a T/C ([3]; 4 mg/kg iv, 14 d) of 70.16% and a Tumor volume ([3]; 4 mg/kg iv, 14 d) of 1530 ± 572 mm^3. It also gave an RTV ([3]; 4 mg/kg iv, 16 d) of 6.870 ± 1.613, a T/C ([3]; 4 mg/kg iv, 16 d) of 68.88% and a Tumor volume ([3]; 4 mg/kg iv, 16 d) of 1740 ± 637 mm^3. It also gave an RTV ([3]; 4 mg/kg iv, 18 d) of 7.697 ± 2.279, a T/C ([3]; 4 mg/kg iv, 18 d) of 68.30% and a Tumor volume ([3]; 4 mg/kg iv, 18 d) of 1891 ± 664 mm^3. It also gave an RTV ([3]; 4 mg/kg iv, 21 d) of 7.832 ± 1.816, a T/C ([3]; 4 mg/kg iv, 21 d) of 68.01% and a Tumor volume ([3]; 4 mg/kg iv, 21 d) of 1945 ± 586 mm^3. The Tumor volume ([3]; 8 mg/kg iv, 0 d) was 247 ± 108 mm^3, the RTV ([3]; 8 mg/kg iv, 2 d) was 1.248 ± 0.113 and the T/C ([3]; 8 mg/kg iv, 2 d) was 77.61%. It also gave a Tumor volume ([3]; 8 mg/kg iv, 2 d) of 313 ± 151 mm^3, an RTV ([3]; 8 mg/kg iv, 4 d) of 1.721 ± 0.287 and a T/C ([3]; 8 mg/kg iv, 4 d) of 65.92%. It also gave a Tumor volume ([3]; 8 mg/kg iv, 4 d) of 430 ± 196 mm^3, an RTV ([3]; 8 mg/kg iv, 6 d) of 2.403 ± 0.652 and a T/C ([3]; 8 mg/kg iv, 6 d) of 78.45%. It also gave a Tumor volume ([3]; 8 mg/kg iv, 6 d) of 559 ± 179 mm^3, an RTV ([3]; 8 mg/kg iv, 8 d) of 2.747 ± 0.766 and a T/C ([3]; 8 mg/kg iv, 8 d) of 62.55%. It also gave a Tumor volume ([3]; 8 mg/kg iv, 8 d) of 635 ± 183 mm^3, a Gross tumor volume ([3]; 8 mg/kg iv, 10 d) of 895 ± 252 mm^3 and an RTV ([3]; 8 mg/kg iv, 10 d) of 3.853 ± 0.732. The T/C ([3]; 8 mg/kg iv, 10 d) was 77.03%, the Gross tumor volume ([3]; 8 mg/kg iv, 12 d) was 1034 ± 246 mm^3 and the RTV ([3]; 8 mg/kg iv, 12 d) was 4.548 ± 1.106. It also gave a T/C ([3]; 8 mg/kg iv, 12 d) of 61.23%, an RTV ([3]; 8 mg/kg iv, 14 d) of 4.845 ± 1.330 and a T/C ([3]; 8 mg/kg iv, 14 d) of 57.10%. The Tumor volume ([3]; 8 mg/kg iv, 14 d) was 1122 ± 368 mm^3, the RTV ([3]; 8 mg/kg iv, 16 d) was 4.955 ± 1.786 and the T/C ([3]; 8 mg/kg iv, 16 d) was 49.68%. For the same molecule, the Tumor volume ([3]; 8 mg/kg iv, 16 d) was 1132 ± 397 mm^3, the RTV ([3]; 8 mg/kg iv, 18 d) was 5.609 ± 1.197 and the T/C ([3]; 8 mg/kg iv, 18 d) was 49.77%. It also gave a Tumor volume ([3]; 8 mg/kg iv, 18 d) of 1292 ± 340 mm^3, an RTV ([3]; 8 mg/kg iv, 21 d) of 5.721 ± 0.925 and a T/C ([3]; 8 mg/kg iv, 21 d) of 49.68%. For the same molecule, the Tumor volume ([3]; 8 mg/kg iv, 21 d) was 1375 ± 558 mm^3, the Initial body weight ([3]; H460 nude mice, 2 mg/kg iv group) was 22.50 ± 1.38 g and the Ending body weight ([3]; H460 nude mice, 2 mg/kg iv) was 25.32 ± 2.25 g. The Tumor weight ([3]; H460 nude mice, 2 mg/kg iv) was 2.94 ± 0.68 g, the Tumor-inhibition rate ([3]; H460 nude mice, 2 mg/kg iv) was 9.49% and the Initial body weight ([3]; H460 nude mice, 4 mg/kg iv group) was 23.33 ± 2.25 g. For the same molecule, the Ending body weight ([3]; H460 nude mice, 4 mg/kg iv) was 23.32 ± 2.08 g, the Tumor weight ([3]; H460 nude mice, 4 mg/kg iv) was 2.52 ± 0.92 g and the Tumor-inhibition rate ([3]; H460 nude mice, 4 mg/kg iv) was 22.56%. For the same molecule, the Initial body weight ([3]; H460 nude mice, 8 mg/kg iv group) was 22.33 ± 1.51 g, the Ending body weight [3, 5] was 22.55 ± 2.50 g and the Tumor weight [3, 5] was 1.85 ± 0.95 g. The Tumor-inhibition rate [3, 5] was 43.08%, the “effects on the body weight of the animals” value ([3]; H460 nude mice, dosage groups of DPT (8, 4, 2 mg/kg iv)) was “no significant inhibition effects on the body weight of the animals” and the “Inhibition effects on in vitro growth” value ([4]; 5 × 10^−5M) was 67.05%. The “Inhibition effects on in vitro growth” value ([4]; 10^−5M) was 54.02%, the “Inhibition effects on in vitro growth” value ([4]; 10^−6M) was 50.95% and the “Inhibition effects on in vitro growth” value ([4]; 10^−7M) was 43.77%. The “Inhibition effects on in vitro growth” value ([4]; 10^−8M) was 35.82% and the “inhibition effects compared with Etoposide” value ([4]; K-562, 10^−5 to 10^−8 M) was “significant better than that of Etoposide”.

From patent US8859527B2 (priority 2009, dated 2014)
